In US6652633B2, “Fire retardant” (Arch Wood Protection, Inc., priority 2001, dated 2003):

Assay: potentiometric titration against 0.1 N NaOH with mannitol complexation (equivalence points)
Format: physicochemical
Conditions: aqueous GUP/boric acid solution complexed with mannitol; potentiometric titration of GUP/boric acid solutions, samples complexed with mannitol; read-out: pKa (equivalence point)
Method: The mixture was heated to approximately 48° C. to dissolve all of the solids, and a sample for analysis taken. The temperature of the solution was then raised and maintained between 70° C. and 90° C. for 3.5 hours. Samples of the solution were analyzed by potentiometric titration every hour, and at the end of the 3.5 hour reaction period.
The samples were titrated against approximately 0.1 N NaOH (standardized against a potassium hydrogen phthalate standard from NIST). Because the pKa of GUP is very close to that for boric acid, the samples were each complexed with 10 g of mannitol to form a boric acid ester having a lower pKa that is more easily distinguishable from that of GUP. The results are given in Table 1,below, and plotted on FIG. 1.
Approximately 0.1000 g of solid product was combined with about 10 g mannitol and titrated against 0.1 N NaOH. The mannitol was added to react with the boric acid to for a borate ester, which has a much lower equivalence point than GUP. […] The loss in yield was attributable to the short reaction time allowed in this example. A kinetic analysis was subsequently undertaken, and it was determined that an increase in GUP yield could be obtained by increasing the reaction time, as indicated in Table 4 below.

pKa: 7.25
SMILES: N=C(N)NC(N)=O [GUP, guanylurea phosphate]
